Where “and” joins values, the source holds several entries; their conditions need not be identical. Identical values can stand only once. After the bases stand the sugars from the 5' end (letter, count) and the backbone: PS all phosphorothioate, else s phosphorothioate and o phosphodiester by linkage. Methylation of C is not given here. e = 2'-O-(2-methoxyethyl) (MOE); k = constrained ethyl (cEt); d = 2'-deoxy (DNA); m = 2'-O-methyl
Molecular target: HSD17B13
Settings: ASO, HepaRG

Row | Sequence | target mRNA inhibition (1 µM) | further results
1 | CTATTGTATGAGGTCT (sugars k3 d10 k3, PS) | 42% | –
2 | AGTTGCACCGTTTTGG (sugars k3 d9 k3 e1, PS) | 43% | –
3 | AACATAGGCTTAGTGT (sugars k3 d10 k3, PS) | 18% | –
4 | GTACTATAGTATTTAC (sugars k3 d10 k3, PS) | 27% | –
5 | TGATTACAGCATCAAG (sugars k3 d10 k3, PS) | 69% | –
6 | ACATTCTTCAGGTGTT (sugars k3 d10 k3, PS) | 88% | target mRNA inhibition (0.02 µM): 0%; target mRNA inhibition (0.078 µM): 20%; target mRNA inhibition (0.313 µM): 48%; target mRNA inhibition (1.25 µM): 80%; target mRNA inhibition (5 µM): 90%
7 | AGACCAAAAAGATGGC (sugars k3 d10 k3, PS) | 80% | target mRNA inhibition (0.02 µM): 4%; target mRNA inhibition (0.078 µM): 35%; target mRNA inhibition (0.313 µM): 69%; target mRNA inhibition (1.25 µM): 82%; target mRNA inhibition (5 µM): 72%
8 | TACAACCTGGTTTCAT (sugars k3 d10 k3, PS) | 25% | –
9 | CTAGTAATTGCATCTG (sugars k3 d10 k3, PS) | 57% | –
10 | GATCCTATATACATCC (sugars k3 d10 k3, PS) | 49% | –
11 | TGCTCCATAATAATAG (sugars k3 d10 k3, PS) | 35% | –
12 | GAAACTCACTTCCTAC (sugars k3 d10 k3, PS) | 56% | –
13 | AGTTATTCTCTTGACA (sugars k3 d10 k3, PS) | 48% | –
14 | TAGTATTTGGGTGTTC (sugars k3 d10 k3, PS) | 27% | –
15 | GGTGGTAACGGTGATC (sugars k3 d9 k3 e1, PS) | 47% | –
16 | CATTATTCACCACGAT (sugars k3 d10 k3, PS) | 33% | –
17 | TAGAATACGCTGAGAG (sugars k3 d10 k3, PS) | 47% | –
18 | GTATTTCGCTACTGTA (sugars k3 d10 k3, PS) | 76% | target mRNA inhibition (0.02 µM): 0%; target mRNA inhibition (0.078 µM): 0%; target mRNA inhibition (0.313 µM): 24%; target mRNA inhibition (1.25 µM): 64%; target mRNA inhibition (5 µM): 86%
19 | ACCAATATGGGATGAG (sugars k3 d10 k3, PS) | 24% | –
20 | TCATAAGTAGTCTGCC (sugars k3 d10 k3, PS) | 62% | –
21 | TGCTAAGTAGTAATTC (sugars k3 d10 k3, PS) | 32% | –
22 | TTAAGCAGAATTGTGA (sugars k3 d10 k3, PS) | 7% | –
23 | TAAGATACCCAGGTTG (sugars kkdddddddddkekek, PS) | 30% | –
24 | CCGAAAAAAGTGGAGG (sugars k3 d10 k3, PS) | 31% | –

Row | Sequence | target mRNA inhibition (1 µM) | further results
25 | AACTAGGAAGTGATCC (sugars k3 d10 k3, PS) | 58% | –
26 | CTAAGTAGTAATTCTA (sugars k3 d10 k3, PS) | 35% | –
27 | GCACCGTTTTGGGCTA (sugars k3 d1 m1 d8 k3, PS) | 67% | –
28 | GTAACGGTGATCAAAT (sugars kkdddddddddkekek, PS) | 34% | –
29 | GGTTGAGATAAAGCTG (sugars k3 d1 m1 d8 k3, PS) | 57% | –
30 | AGCTTGGAAGGAGACT (sugars k3 d10 k3, PS) | 69% | –
31 | GATTAATTCCCTTCCA (sugars k3 d10 k3, PS) | 30% | –
32 | TATTAGAAGTCAGCCC (sugars kkdddddddddkekek, PS) | 36% | –
33 | AGAGGCAAGGATACCT (sugars k3 d10 k3, PS) | 78% | target mRNA inhibition (0.02 µM): 5%; target mRNA inhibition (0.078 µM): 7%; target mRNA inhibition (0.313 µM): 39%; target mRNA inhibition (1.25 µM): 68%; target mRNA inhibition (5 µM): 40%
34 | AGTACAGTTCCTTTTC (sugars kkdddddddddkekek, PS) | 40% | –
35 | GGCCAAGGGAACACTG (sugars k3 d10 k3, PS) | 36% | –
36 | TGACAATGGTTGCCAC (sugars k3 d9 k3 e1, PS) | 45% | –
37 | CAAAAGACTTTGAGAC (sugars k3 d1 m1 d8 k3, PS) | 25% | –
38 | GGTTGAGATAAAGCTG (sugars k3 d9 k3 e1, PS) | 67% | –
39 | TTGAGAGAACTTATAC (sugars k3 d10 k3, PS) | 21% | –
40 | GTAAATTCTTGCTATC (sugars k3 d10 k3, PS) | 40% | –
41 | TTACATTACAGCCTTA (sugars k3 d10 k3, PS) | 67% | target mRNA inhibition (0.02 µM): 0%; target mRNA inhibition (0.078 µM): 0%; target mRNA inhibition (0.313 µM): 19%; target mRNA inhibition (1.25 µM): 56%; target mRNA inhibition (5 µM): 80%
42 | GACAGTTGAGTAGTGT (sugars k3 d10 k3, PS) | 46% | –
43 | TTGGTGGACTTCAGAG (sugars k3 d10 k3, PS) | 8% | –
44 | AGACAGTTGAGTAGTG (sugars k3 d10 k3, PS) | 63% | –
45 | GTGACATAACTACTTC (sugars k3 d10 k3, PS) | 68% | –
46 | ACTACTTCAGTTAGCA (sugars k3 d10 k3, PS) | 79% | –
47 | AGGTAGCTTTTGTCCA (sugars k3 d1 m1 d8 k3, PS) | 59% | –
48 | GCTTAGTACCAAGACA (sugars k3 d10 k3, PS) | 62% | –

Row | Sequence | target mRNA inhibition (1 µM) | further results
49 | CAGAGACATGAGGTTT (sugars k3 d9 k3 e1, PS) | 45% | –
50 | AGTCGGATTATTTTTT (sugars k3 d10 k3, PS) | 42% | –
51 | GGGTCCATTGTTTCTT (sugars k3 d10 k3, PS) | 21% | –
52 | CTTATACTGAAGGCTG (sugars k3 d10 k3, PS) | 48% | –
53 | TCCGGTAAGAATTTCG (sugars k3 d10 k3, PS) | 63% | –
54 | ATATACAGACTAAGGG (sugars k3 d10 k3, PS) | 24% | –
55 | ATGTUTATGTAAGCAC (sugars k3 d1 m1 d8 k3, PS) | 45% | –
56 | CTTAGGAAAGCTCATG (sugars k3 d10 k3, PS) | 0% | –
57 | ATGTATCTTATAAGAC (sugars k3 d10 k3, PS) | 0% | –
58 | ATGTCCTAGGATGTTG (sugars k3 d10 k3, PS) | 50% | –
59 | AATCAGTTTTCCTCAT (sugars k3 d10 k3, PS) | 53% | –
60 | GTATAGTTATCTTCTC (sugars kkkdddddkdddkkke, PS) | 68% | –
61 | TGTGTTCTTGTTGATA (sugars k3 d10 k3, PS) | 69% | –
62 | ACCATAGGACATGGAG (sugars k3 d10 k3, PS) | 62% | –
63 | AATCACAAGTAAGGTA (sugars kkdddddddddkekek, PS) | 59% | –
64 | AGCTAAGTATACTTTC (sugars k3 d10 k3, PS) | 18% | –
65 | AGAGGCTAGGGAAATC (sugars kkdddddddddkekek, PS) | 59% | –
66 | CGCAACAGTTTAGATT (sugars k3 d10 k3, PS) | 57% | –
67 | TACTGTCCCAGCATTA (sugars k3 d10 k3, PS) | 21% | –
68 | ATCTCTTAGCTGTGCA (sugars k3 d10 k3, PS) | 63% | –
69 | CTAGGAAGTGATCCAT (sugars k3 d10 k3, PS) | 66% | –
70 | ACTTTCATAGGGAGAC (sugars k3 d10 k3, PS) | 80% | target mRNA inhibition (0.02 µM): 0%; target mRNA inhibition (0.078 µM): 8%; target mRNA inhibition (0.313 µM): 25%; target mRNA inhibition (1.25 µM): 69%; target mRNA inhibition (5 µM): 83%
71 | CCTATGCAAATTCATA (sugars k3 d10 k3, PS) | 34% | –
72 | TGATTCGAAACTATTC (sugars k3 d10 k3, PS) | 29% | –

Row | Sequence | target mRNA inhibition (1 µM) | further results
73 | CTATTGATTGGCTTAA (sugars k3 d10 k3, PS) | 31% | –
74 | TAGTCTTGATGTAGTG (sugars k3 d1 m1 d8 k3, PS) | 56% | –
75 | TGCCAGATTGCACAAA (sugars k3 d10 k3, PS) | 54% | –
76 | GGATACCTGAAAAGCC (sugars k3 d10 k3, PS) | 68% | target mRNA inhibition (0.02 µM): 2%; target mRNA inhibition (0.078 µM): 0%; target mRNA inhibition (0.313 µM): 38%; target mRNA inhibition (1.25 µM): 69%; target mRNA inhibition (5 µM): 77%
77 | TCCAATTTAAATCAGG (sugars k3 d10 k3, PS) | 61% | –
78 | TATAGTTATCTTCTCA (sugars kkdddddddddkekek, PS) | 45% | –
79 | GCATCTTAAGATACCC (sugars kkdddddddddkekek, PS) | 41% | –
80 | TGGCCGCACACTGAAG (sugars k3 d10 k3, PS) | 0% | –
81 | CTCTAAATACCCTTGG (sugars k3 d10 k3, PS) | 7% | –
82 | CGTTTGACTGCTGCTA (sugars k3 d9 k3 e1, PS) | 75% and 50% | target mRNA inhibition (0.02 µM): 4%; target mRNA inhibition (0.078 µM): 17%; target mRNA inhibition (0.313 µM): 34%; target mRNA inhibition (1.25 µM): 57%; target mRNA inhibition (5 µM): 66%
83 | TTGATATACGATGGAA (sugars k3 d10 k3, PS) | 38% | –
84 | TTTTATTGGGCCCAAT (sugars k3 d10 k3, PS) | 18% | –
85 | AAGGCTTATGAAGTTA (sugars k3 d10 k3, PS) | 61% | –
86 | CTAACCAATTATATGA (sugars k3 d10 k3, PS) | 21% | –
87 | GTGCCAAACCAATGTT (sugars kkdddddddddkekek, PS) | 38% | –
88 | CCCAAGGCCTGAAGTT (sugars k3 d10 k3, PS) | 61% | –
89 | TGGAGGAAAGCTTCAA (sugars k3 d10 k3, PS) | 10% | –
90 | CCAATTTAAATCAGGC (sugars k3 d10 k3, PS) | 73% | target mRNA inhibition (0.02 µM): 0%; target mRNA inhibition (0.078 µM): 17%; target mRNA inhibition (0.313 µM): 52%; target mRNA inhibition (1.25 µM): 72%; target mRNA inhibition (5 µM): 89%
91 | TACTTGAACAGTCTTA (sugars k3 d10 k3, PS) | 48% | –
92 | GTTTCAACTAAACATG (sugars k3 d10 k3, PS) | 65% | –
93 | GATAUTCTGTGGCATG (sugars k3 d1 m1 d8 k3, PS) | 60% | –
94 | TTAGTATAGTTATCTT (sugars k3 d10 k3, PS) | 37% | –

— the OligoGym collection
